Where “and” joins values, the source holds several entries; their conditions need not be identical. Equal values may be shown once.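 All cell lines were grown in 96-well plates and treated with compound for 48 hours. Abbreviation: GI50, concentration required for 50% inhibition of growth. The concentration for full growth arrest is given as TGI.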
Tests used:
Experiment in all cases: NCI-60 cell line screen, 48 h
U251 CNS = tested on: U251 CNS
MALME-3M melanoma = tested on: MALME-3M melanoma
HOP-92 NSCLC = tested on: HOP-92 NSCLC
DLD-1 colon = tested on: DLD-1 colon
SK-MEL-2 melanoma = tested on: SK-MEL-2 melanoma
OVCAR-5 ovarian = tested on: OVCAR-5 ovarian
SF-539 CNS = tested on: SF-539 CNS
NCI-H23 lung = tested on: NCI-H23 lung
UO-31 renal = tested on: UO-31 renal
HCT-116 colon = tested on: HCT-116 colon

| SMILES | TGI (U251 CNS) | TGI (MALME-3M melanoma) | TGI (HOP-92 NSCLC) | GI50 (DLD-1 colon) | TGI (DLD-1 colon) | TGI (SK-MEL-2 melanoma) [µM] | TGI (OVCAR-5 ovarian) | TGI (SF-539 CNS) | TGI (NCI-H23 lung) | GI50 (UO-31 renal) [µM] | TGI (UO-31 renal) [µM] | GI50 (U251 CNS) [µM] | GI50 (MALME-3M melanoma) [µM] | GI50 (HOP-92 NSCLC) [µM] | GI50 (SK-MEL-2 melanoma) [µM] | GI50 (HCT-116 colon) [µM] | TGI (HCT-116 colon) [µM] | GI50 (OVCAR-5 ovarian) [µM] | GI50 (SF-539 CNS) [µM] | GI50 (NCI-H23 lung) [µM] |
| --- | --- | --- | --- | --- | --- | --- | --- | --- | --- | --- | --- | --- | --- | --- | --- | --- | --- | --- | --- | --- |
| CC[C@@]1(O)C[C@H](OC2CC(N(C)C)C(OC3CC(O)C(OC4CCC(=O)C(C)O4)C(C)O3)C(C)O2)c2c(cc3c(c2O)C(=O)c2c(O)cccc2C3=O)[C@H]1C(=O)OC (some centres undefined) | 2.11 µM and 2.49 µM | 0.0991 µM and 0.128 µM | 0.129 µM and 0.161 µM | 0.00912 µM and 0.00788 µM | 1.15 µM and 1.17 µM | 0.118 | 0.22 µM and 0.457 µM | 0.0917 µM and 0.216 µM | 0.12 µM and 0.125 µM | – | – | – | – | – | – | – | – | – | – | – |
| O=C([CH-]C(=O)c1ccccc1)c1ccccc1.O=C([CH-]C(=O)c1ccccc1)c1ccccc1.O=C([CH-]C(=O)c1ccccc1)c1ccccc1.[Nd+3].[OH3+] | > 100 µM | 36.4 µM | 25.5 µM | – | – | 15.6 | > 100 µM | 45.9 µM | 13.3 µM | 2.85 | 8.19 | 9.22 | 9.41 | 8.29 | 3.97 | 4.92 | 19.1 | 39.5 | 13.7 | 2.97 |
| CC(=O)OCC1OC(n2c3c(c(-c4cccc5ccccc45)c(C#N)c2=S)CCCC3)C(OC(C)=O)C(OC(C)=O)C1OC(C)=O (centres undefined) | > 100 µM | > 100 µM | > 100 µM | – | – | > 100 | > 100 µM | > 100 µM | > 100 µM | – | 62.2 | – | – | – | – | – | > 100 | – | – | – |
| Clc1ccc(Cc2nc3ccccc3s2)c(Cl)c1 | – | 30.9 µM | – | – | 29 µM | 32.7 | 38.7 µM | 12 µM | – | – | 30 | – | – | – | – | – | – | – | – | – |
| COc1cc2c(c(OC)c1OC)-c1ccc(N)c(=O)cc1[C@@H](NC(C)=O)CC2 | > 100 µM | > 100 µM | > 100 µM | – | – | 0.0353 | > 100 µM | > 100 µM | > 100 µM | 0.705 | > 100 | 0.0302 | 48.8 | 0.0409 | < 0.01 | 0.0168 | > 100 | 0.202 | 0.0289 | 0.0316 |
| COc1ccc(Nc2ncc(Br)c(NCCCNC(=O)C3CCC3)n2)cc1 | > 100 µM | > 100 µM | 39.8 µM | – | – | 55.7 | 40.2 µM | 18.5 µM | 62.2 µM | 2.55 | 13.5 | 12.4 | 24.6 | 5.58 | 22.9 | 8.31 | 82.3 | 10.8 | 3.69 | 16.6 |
| O=C(c1ccc(Cl)cc1)c1ccc(OCCCCCCCCCCOc2ccc(C(=O)c3ccc(Cl)cc3)cc2)cc1 | > 100 µM | > 100 µM | > 100 µM | – | > 100 µM | > 100 | > 100 µM | – | > 100 µM | – | > 100 | – | – | – | – | – | – | – | – | – |
| CC(C)=CCC/C(C)=C/CC/C(C)=C/Cc1c(O)c2ccccc2oc1=O | > 100 µM | > 100 µM | > 100 µM | – | > 100 µM | > 100 | – | > 100 µM | > 100 µM | – | > 100 | – | – | – | – | – | > 100 | – | – | – |
| CS(=O)(=O)OCCN1CCN(C(=O)c2cccc3c(Nc4ccc(S(=O)(=O)N=C(N)N)cc4)c4ccccc4nc23)CC1 | > 100 µM | > 100 µM | > 100 µM | – | > 100 µM | – | > 100 µM | > 100 µM | > 100 µM | – | > 100 | – | – | – | – | – | > 100 | – | – | – |

Reference: PubChem BioAssay (NCI)
